For one data set, the system named is hESCs. Nature of the data set: Exposure of dissociated hESCs to cryoprotective agent. Type of data set: cell-based, human. Particulars: 10% DMSO 10 or 30 min, 4° C. or 37° C., no freezing. Here is the method: hESCs are cultured as monolayers and are dissociated with Accutase, pelleted, and resuspended with either normal culture media (CM) as a positive control for cell viability or with the Freeze Medium (FM) containing 10% DMSO. Cells are either plated immediately in CM or incubated in FM for up to 30 minutes. Following incubation time, cells are allowed to reattach to tissue culture plates for 24 hours and then assessed for attachment and viability. DMSO concentration, freezing time, and freezing temperature, for example, may be varied to obtain best results for a given culture. […] As a result, the Viable Yield (the product of Attachment and Viability) is also similar among the 4 incubation conditions. Thus, exposure to DMSO without freezing produces a minimal effect on survival of dissociated cells monolayer cultures.

The subject of data set [1] is insulin-GFP transgene in human Ins-G ICCs. Nature of the data set: Insulin-GFP expression after freezing ICCs and post-thaw DMSO exposure. Particulars: frozen, post-thaw DMSO 20 minutes at 37° C. Type of data set: cell-based. From the text:
In addition to survival, it is important that ICCs retain insulin gene expression during these manipulations. Human Ins-G cells express endogenous insulin message in response to tamoxifen (which activates the transcription factor […] by promoting translocation from the cytoplasm to the nucleus). The cells were also engineered to express GFP from an insulin transgene. Therefore, GFP expression in response to tamoxifen is a surrogate for insulin expression. We examined GFP expression in control ICCs (not frozen, not exposed to DMSO) as well as in cells frozen and exposed to DMSO for 20 minutes at 37° C. (FIG. 3B).

Data set [2] deals with human Ins-G cells. Format: cell-based. As to the method: The sensitivity of dissociated human Ins-G cells to DMSO without cryopreservation (CP) was investigated. […] Temperatures ranging from 0° C. to 37° C. were investigated. Regardless, cell viability was practically indistinguishable from control cells not exposed to DMSO (FIG. 1A, column #1).
In prior studies with a macro-encapsulation device, we loaded cells into devices immediately prior to transplantation. Thus, until now we have not exposed encapsulated cells to CPA, yet the ability to freeze preloaded devices would ensure reproducibility between experiments and among users. The process of loading cells into the device requires approximately 20 min; beginning when cells are drawn up into a Hamilton syringe and slowly dispensed into the device, and ending when the syringe has been removed from the device port and the port has been sealed. We hypothesized therefore, that cells must withstand pre-freeze exposure to CPA for 20 minutes in order to be successfully cryopreserved in devices. […]
(§1) Cells cultured as monolayers were dissociated with Accutase, pelleted, and resuspended with either normal culture media (CM) as a positive control for cell viability or with the Freeze Medium (FM) containing 10% DMSO. […] Following incubation time, cells were allowed to reattach to tissue culture plates for 24 hours and then assessed for attachment and viability. […]

Data set [3] deals with islet like cell clusters (ICCs) of human Ins-G cells. Briefly: Freezing ICCs: pre-freeze DMSO exposure and centrifugation. Format: cell-based. Here is the method: To more closely mimic the morphological structure of pancreatic islets, cells cultured as 3-dimensional ICCs were investigated. The first technical question was how to harvest clusters, whether by gentle (200 g×5 min) centrifugation or by settling by gravitational force (1 g). Here prefreeze exposure of the clusters to 10% DMSO at room temperature and +37° C. before freezing was investigated.
Two negative controls were employed. First (sample 1 on FIG. 2) were non-frozen clusters but the cells were exposed to 10% of DMSO for 20 min at +37° C. and centrifuged (200 g×5 min) The second control (Column #2) were cells that were not exposed top DMSO and frozen w/o it, with the same other procedures that in the first control. […] Apparently, some clusters were lost because they had not settled to the bottom of the tube either due to sub-optimal time or length of column 15-mL tube (Katkov II et al. (1999) Cell Biochem Biophys, 31:231-45). Cell clusters, it was observed, are more sensitive than dissociated cells from monolayer cultures even before and freezing (viability after thawing for the re-attached cells was in range of 61-72%, which was substantially lower than in monolayers (Experiment 2, FIG. 2). Thus, natural sedimentation was used with an increased time and decreased column length by using 50-mL conical tubes instead for the next experiments. […]

Data set [4] relates to human Ins-G cells. Nature of the data set: Freezing dissociated Ins-G cells after pre-freeze incubation with DMSO. Format: cell-based. As to the method: The effects of preincubation with DMSO on freeze/thaw viability were investigated. Freezing dissociated cells pre-exposed to Freeze Media containing 10% DMSO (FIG. 1B) also had no effect on cryosurvival, which per se was exceptionally good (up to 77-79% to control). In order to verify requirement for cryoprotective agents (CPA) in freezing, a sample was frozen in culture media (no DMSO). As expected, survival was very poor (11% in comparison to the positive control). […] Without being bound to theory, a possible explanation is that cell mortality resulted from slow (suboptimal) freezing injury, when cells are frozen at the rate substantially slower than the equilibrium “Mazur's rate” when the cells are just in equilibrium with freezing outer milieu. The suboptimal rates in the inverted U curve usually contributed to the effects of highly concentrated solutes rather than immediate cell destruction and fast necrosis associated with the supra-optimal (fast freezing, according to the 2-factor hypothesis developed by Mazur (Mazur et al. (1972) Experimental Cell Res., 71:345-349; Mazur et al. (2008) Biol Reprod, 78:2-12). The cell membrane rupture and other colligative osmotic damage due to excessive shrinkage and swelling usually manifest quickly as the loss of selective permeability properties so the cells become permeable to large particle dyes such Trypan Blue, soon after the treatment. The osmotic damage usually decreases with the temperature and step-wise addition and dilution (which, in fact, exposes the cells to CPA longer than an abrupt one-step addition or dilution). In contrast, a long exposure to a CPA or/and to very concentrated solutions of the cryoprotectant can manifest later in the form of, e.g., death due to specific chemical toxicity, particularly on membrane and epigenetic level as it may affect protein folding and membrane lipid bilayers, as it is shown for some types of cells (see, for example (Katkov II et al. (2006) Cryobiology, 53:194-205) for references. In contrast to osmotic damage, chemical toxicity usually exacerbates at longer exposure at higher temperature, and the prevalence of one mode vs. another can be easily differentiate by treating cells with higher temperatures and/or for longer exposure to the CPA (Katkov II (2011) Cryobiology, 62:242-4; Katkov II et al. (1998) Cryobiology, 37:325-38; Katkov II et al. (2007) Cryo Letters, 28:409-27).
as §1

Data set [5] deals with islet like cell clusters (ICCs) of human Ins-G cells. Format: cell-based. The following applies: for viable yield: human. As to the method:
While the level of DMSO will gradually decrease during elution, the extreme point was tested and the same high level of DMSO was maintained for the longevity of the entire exposure.
Increase of temperature of elution will shorten the time of elution but DMSO might cause increased toxicity at increased temperature. Driven by this dilemma, extreme treatments of post-thawed clusters were checked starting with immediate washing of DMSO, maintaining them for 20 min on 4° C. before washing, at 25° C. for 10 and 20 min and at +37° C. at 10 and 20 min (Experiment 3, FIG. 3A). […] There was one exception however, the cells incubated at room temperature for 20 minutes performed slightly poorer than the other treatments. […] This phenomenon was observed over a large number of experiments (N=6), but its basis is unclear. […] Further experiments would be needed to determine with certainty that RT is actually more detrimental than +37° C. or ice. The surviving cells retain insulin expressing capacity for all treatments (FIG. 3B).
Ultimately, the ability to freeze cell clusters inside an encapsulation device may require that the cells survive the time required to remove CPA upon thawing. Normally, when (unencapsulated) cells are thawed, CPA is removed quickly, either by centrifugation or by extensive dilution into culture media. However, for a cell-filled device, CPA removal will be accomplished via diffusion of CPA out of device into a large volume of wash media, until equilibration is reached. We estimated that approximately 20 minutes will be required to reach equilibrium, during which time cells are exposed to CPA. We therefore first examined the effects of post-thaw exposure to CPA in unencapsulated ICCs. Because equilibrium is also temperature dependent, we exposed thawed ICCs to CPA at 25° C. or 37° C. As we can see from FIG. 3A, sample 1, a control which was not exposed to CPA or frozen, reattachment of ICCs to tissue culture plates is 48%, lower than reattachment of dissociated cells (FIG. 1, sample 1). […]

Data set [6] shares this test system. Briefly: ICCs loaded or frozen in TheraCyte encapsulation device. Type of data set: cell-based. The following applies: frozen in TheraCyte device in 10% DMSO freezing medium. Here is the method:
Observing that the clusters can be exposed to DMSO both before freezing and after thawing when the cells were frozen in cryovials, cells were then frozen in the TheraCyte™ device (FIGS. 4A-C). Cells were exposed to DMSO during loading into the device. The port was then trimmed so that the device could fit a 1.5 mL cryovial which also contained 10-% DMSO freezing medium and froze them. After the vial was thawed, DMSO was eluted by placing the device in gently swirling medium solution (using magnetic stir bar). Without being limited by theory, this treatment may be sufficient to wash out the majority of DMSO before transplantation. Moreover this procedure mimics slow elution if the device is transplanted immediately after thawing, as a low concentration of DMSO is presumed to be non-toxic even for small animals. […] Barely 1/10 of loaded cells survived the whole procedure (including cutting device in pieces and placing into the dish, washing that out in 48 hrs, etc. (Experiment 4, FIG. 5). There can be several explanations for the cell loss, such as following.
We next addressed the effects of freezing ICCs inside the encapsulation device. As a control for freezing, ICCs resuspended in FM were loaded into devices which were sealed and then immediately opened and cells removed. Cell attachment following release from device averaged 64% and of the attached cells, 59% were viable. […]

[7] abbreviates: pre-freeze 10% DMSO 10 or 30 min, +4° C. or +37° C.

Read-outs that look alike come from different tables or passages of the source.

From patent publication US20150320836A1, “CRYOPRESERVATION OF CELLS INSIDE A MACRO-ENCAPSULATION DEVICE” (The Regents of the University of California, priority 2012, published 2015) come the findings set out here.

`C[S+](C)[O-]` [DMSO, dimethyl sulfoxide] showed a survival in the data set on hESCs of no less than 80%. In data set [1], the “GFP expression versus control ICCs” value is “no significant difference”. Moreover, the “tolerance of exposure to 10% DMSO” value with human Ins-G cells [2] is reported as “well tolerated”. Besides, in the data set on human Ins-G cells [2] (human, 10 %), the “Viable Yield (product of Attachment and Viability)” value was 63-73%. Also, the “viability after thawing of re-attached cells” value in data set [3] (ICCs frozen after pre-freeze 10% DMSO exposure) was 61-72%. Also, the viable yield in data set [3] (clusters exposed to 10% DMSO at +37° C. for 20 min, centrifuged 200 g×5 min) came to 31%. Also, the “cryosurvival relative to control” value with human Ins-G cells [4] (frozen in Freeze Media with 10% DMSO after pre-exposure) was 77-79%. Also, in the data set with human Ins-G cells [4] (setting [7]), the “Attachment efficiency after freezing” value is given as 73-77%, the “Viable Yield after freezing” value is given as 63-73% and the “viability of re-attached cells after freezing” value is on record as 86-92%. In data set [5], the “tolerance of post-thaw exposure to DMSO” value was “well tolerated” and the viable yield is given as 35-38%. Moreover, the viable yield in data set [5] (20 min) worked out at 21%. Moreover, in data set [6], the “fraction of loaded cells surviving the whole procedure” value is reported as 1/10.
